Experimental data taken from patent EP0104596A2, “Furoindole derivatives” (TAISHO PHARMACEUTICAL CO. LTD, priority 1982, dated 1984).

Columns and labels:
Format in all cases: in vivo
[1] = tested on: male rats of Wistar strain; assay: Acute oral toxicity (lethality) in rats; details: 10 male Wistar rats
male S.D. rats = assay: Adjuvant-induced arthritic pain (analgesic effect); details: Rattus norvegicus, po, Mycobacterium butyricum polyarthritis, pain response every 1 hour for 5 hours, read-out: Analgesic action (ED50) Adjuvant-induced arthritic pain method
Protocol: (4) Adjuvant-induced Arthritic Pain [Kuzuna and Kawai: Chem. Pha^rm. Bull., ^23, 1184(1975)]
6 male S.D. rats weighing 160 - 200 g were used in testing each compound. Polyarthritis was induced by the intradermal injection (0.1 ml/rat) of 0.5 % Mycobacterium butyricum suspension into the distal portion of the tail. The pain stimulus was applied by a gentle flection of the right tarso-tibial joints repeatedly 5 times at intervals 4 to 5 seconds, the vocalization following the pain stimulus was regarded as pain response.

male ddY mice [2] = assay: Acetic acid writhing method (analgesic effect); details: Mus musculus, po, 30 minutes before i.p. 0.7 % acetic acid, writhes counted 10 to 20 minutes after injection, read-out: Analgesic action (ED50) Acetic acid writhing method
Protocol: (1) Acetic Acid Writhing Method [Koster, Anderson and De Beer: Fed. Proc., 18, 412(1959)]
10 male ddY mice weighing 19 - 23 g were used in testing each compound. The test compounds were administered orally 30 minutes before in the intraperitoneal injection (0.1 ml/ 10 g ) of 0.7 % acetic acid. The number of writhes were counted in each mouse during a period spanning 10 to 20 minutes after the acetic acid injection.
The percent inhibition was calculated as compared with the number of writhes in the control group, and the ED50 values were calculated from the inhibitory percent.

male ddY mice [3] = assay: Tail pressure method (analgesic effect); details: Mus musculus, po, pain threshold raised more than 50 % = positive, measured every 30 minutes for 120 minutes, read-out: Analgesic action (ED50) Tail pressure method
Protocol: (2) Tail Pressure Method [Takagi and Kameyama: Yakugaku Zasshi, 78, 553(1958)]
10 male ddY mice weighing 20 - 25 g were used in testing each compound. The pressure stimulus was applied to the base of the mouse tail. The test compounds were administered orally and the pain threshold was measured every 30 minutes for 120 minutes.
Animals of which post-drug pain threshold raised more than 50 % as compared with its pre-drug threshold were regarded as positive for the analgesic activity, and the ED50 values were calculated from the positive percent.

male Wistar rats = assay: Randall & Selitto method (analgesic effect, brewer's yeast inflamed paw); details: Rattus norvegicus, po, 2 hours after subplantar 20 % brewer's yeast, pain threshold every 1 hour for 4 hours, read-out: Analgesic action (ED50) Randall & Selitto method
Protocol: (3) Randall & Selitto Method [Randall and Selitto: Arch. Int. Pharmacodyn. 111, 409(1957)]
6 male Wistar rats weighing 90 - 110 g were used in testing each compound. The pain threshold was measured with an analgesic meter (Ugo Basile). The test compounds were adminstered orally 2 hours after the subplantar injection(0.1 ml/rat) of 20 % brewer's yeast suspension into the right hind paw, and the pain threshold was measured every 1 hour for 4 hours.
Animals of which post-drug pain threshold raised more than 50 % as compared with the threshold in control group were regarded as positive for the analgesic activity, and the ED50 values were calculated from the positive percent.

`CCCCC(CC)C(=O)n1c2cc(C(F)(F)F)ccc2c2oc(C(=O)N3CCOCC3)cc21` (stereo not shown) [Example 1, 4-(2-ethylhexanoyl)-2-morpholinocarbonyl-6-trifluoromethyl-furo-[3,2-b]-indole] was tested, and the death ([1]; 1000 mg/kg orally) was “no death was observed”.

With `CC(C)OC(=O)n1c2cc(C(F)(F)F)ccc2c2oc(C(=O)N3CCOCC3)cc21` [Example 2, 4-isopropoxycarbonyl-2-morpholinocarbonyl-6-trifluoromethyl-furo-[3,2-b]indole] the death ([1]; 1000 mg/kg orally) was “no death was observed”.

In the case of `CC(C)CC(=O)n1c2cc(C(F)(F)F)ccc2c2oc(C(=O)N3CCOCC3)cc21` [Example 3, 4-isobutylcarbonyl-2-morpholinocarbonyl-6-trifluoromethyl-furo[3,2-b]indole], the death ([1]; 2000 mg/kg orally) was “no death was observed”.

In the case of `O=C(c1cc2[nH]c3cc(C(F)(F)F)ccc3c2o1)N1CCOCC1` [R: -H, 2-morpholinocarbonyl-6-trifluoromethyl-4H-furo[3,2-b]indole], the ED50 (male S.D. rats) was > 100 mg/kg, the ED50 (male ddY mice [2]) was > 100 mg/kg and the ED50 (male ddY mice [3]) was > 100 mg/kg. For the same compound, the ED50 (male Wistar rats) was > 100 mg/kg.
